Reference: patent US4039674A, “3-(3-Methyl-2-octyl)-1-[4-(1-ho mopiperidine)butyryloxy]-6,6,9-trimethyl-7,8,9,10-tetrahydro-6H-dibenzo [b,d]pyran hydrochloride as an anticonvulsant agent” (Abbott Laboratories, priority 1976, dated 1977)
Entries after “also recorded” stand apart in the source; their conditions may differ. Counter-ions that a name gives are not always drawn. Like-named read-outs stand apart in the source and are kept apart here.

Tests used:
[1] = test system: hind limb tonic extensor component of the audiogenic seizure; assay: Audiogenic seizure in mice (tonic extensor component), single oral dose; type: in vivo, male O'Grady strain mice; conditions: for ED50: Mus musculus, po; for activity over time / time of peak effect: single oral dose, 1, 4 and 24 hours
Description: (§1) In this test, male O'Grady strain mice (14-16 grams) especially bred for susceptibility to audiogenic seizures were used as subjects. The audiogenic seizure apparatus consisted of a wooden box enclosing a metal container with two doorbells attached to the upper section. The test consisted of administering the test drug orally as a suspension in 10% olive oil and 90% Methocel (0.5%) to ten animals per dose. […] The test drugs included the present compound, DMHP, DPH, Δ^9 -THC and Phenobarbital.

[2] = test system: hind limb tonic extension seizure (supramaximal electroshock); assay: Supramaximal electroshock seizures in rats (single oral dose); type: in vivo, male Long-Evans rats; conditions: for ED50: Rattus norvegicus, rats, single oral dose
Description: In this test, male Long-Evans rats (170-190 grams) were orally administered the test drugs as a suspension in olive oil and Methocel 0.5% to 5 or 10 animals per dose. At one and four hours post drug administration each animal received an electroshock (150 milliamp for 0.2 seconds) through corneal electrodes to produce a hind limb tonic extension seizure. The animals were considered protected when the hind limb tonic extensor component was blocked.

[3] = test system: hind limb tonic extensor component of the audiogenic seizure; assay: Audiogenic seizure test in mice (5-day chronic administration); type: in vivo, male O'Grady strain mice; conditions: for ED50: Mus musculus, fifth day, 4 hr post drug administration, read-out: Five day chronic audiogenic seizure test ED50 4 hr; for ED50 / activity in abolishing hind limb tonic extensor component: mice, oral; for activity in abolishing hind limb tonic extensor component: five consecutive days
Description: as §1
In this test, the animals, diluent and apparatus described in Example 1, above, were used. The experimental procedure consisted of administering the test drugs orally for four days at 0.5 mg./kg. for the present compound and DMHP, and 1.0 and 0.1 mg./kg., respectively, for DPH and phenobarbital. On the fifth day of testing a dose response study (N=10 animals per dose) was initiated to obtain the ED50 for each compound.

[4] = test system: all components of audiogenic seizures; assay: Audiogenic seizure test in mice (complete seizure protection); type: in vivo, male O'Grady strain mice; conditions: single oral dose; for ED50: Mus musculus
Description: as §1
The animals, diluent, apparatus and experimental procedure described in Example 1 above were used for the present test in mice to determine the complete seizure protection of the various compounds. The compounds tested included the present compound, DMHP and Δ^9 -THC.

[5] = test system: hind limb tonic extension seizure (supramaximal electroshock); assay: Supramaximal electroshock test in rats (5-day chronic administration); type: in vivo, male Long-Evans rats; conditions: for ED50: Rattus norvegicus, 5-day oral administration, fifth day, 4 hr post drug administration, read-out: ED50 4 hr (50% of animals protected from hind limb tonic extension)
[6] = Side effects (sedation and irritability) on repeated medication; type: in vivo; conditions: within a few days of medication
[7] = 1 h, mice, single oral dose, 1 hr post drug administration, read-out: 1 hr ED50 (50% of animals protected from hindlimb tonic extension)
[8] = 4 h, mice, single oral dose, 4 hr post drug administration, read-out: 4 hr ED50 (50% of animals protected from hindlimb tonic extension)
[9] = 24 h, mice, single oral dose, 24 hr post drug administration, read-out: 24 hr ED50 (50% of animals protected from hindlimb tonic extension)
[10] = 1 hr, read-out: 1 hr ED50 (50% of animals protected from hindlimb tonic extension)
[11] = 4 hr, read-out: 4 hr ED50 (50% of animals protected from hindlimb tonic extension)
[12] = 5-day oral, 2.5 mg./kg. (present compound, DMHP), 30.0 mg./kg. (DPH)
[13] = 4 hr post drug administration, read-out: Complete seizure protection 4 hr ED50

SMILES | ED50 [1, 7] | ED50 [1, 8] | ED50 [1, 9] | activity over time / time of peak effect ([1]; mice) | ED50 [2, 10] | ED50 [2, 11] | ED50 ([2]; 24 hr, read-out: 24 hr ED50) | ED50 [3] | activity in abolishing hind limb tonic extensor component [3] | ED50 [5] | tolerance to anticonvulsant activity [5, 12] | ED50 [4, 13] | also measured
CCC1(c2ccccc2)C(=O)NC(=O)NC1=O [Phenobarbital] | 1.9 mg/kg | 0.3 mg/kg | 6 mg/kg | peak effect at four hours post drug administration | 22 mg/kg | 18 mg/kg | > 40 mg/kg | 0.1 mg/kg | very active | – | – | – | –
CCCCCc1cc(O)c2c(c1)OC(C)(C)C1CCC(C)=CC21 (single isomer, unassigned) [Δ9-THC] | 5 mg/kg | 38.8 mg/kg | > 100 mg/kg | most active at the one hour period | 53.3 mg/kg | 40.6 mg/kg | > 200 mg/kg | – | – | – | – | – | ED50 ([4]; 1 h, one hour data, read-out: Complete seizure protection ED50 (one hour data)): 6.5 mg/kg
O=C1NC(=O)C(c2ccccc2)(c2ccccc2)N1 [DPH, diphenylhydantoin] | 1.7 mg/kg | 3.3 mg/kg | 11 mg/kg | – | 23 mg/kg | 62.2 mg/kg | > 200 mg/kg | < 0.5 mg/kg | – | 26.6 mg/kg | – | – | –
CCCCCC(C)C(C)c1cc(O)c2c(c1)OC(C)(C)C1=C2CC(C)CC1 (stereo not shown) [DMHP] | 6.7 mg/kg | 2.9 mg/kg | 15.1 mg/kg | active over a prolonged period (24 hours) | 4.6 mg/kg | 7.5 mg/kg | 66.8 mg/kg | 1.6 mg/kg | – | 26.7 mg/kg | slight tolerance | 6.7 mg/kg | –
CCCCCC(C)C(C)c1cc(OC(=O)CCCN2CCCCCC2)c2c(c1)OC(C)(C)C1=C2CC(C)CC1 (stereo not shown) [Present compound, 3-(3-methyl-2-octyl)-1-[4-(1-homopiperidine)butyryloxy]-6,6,9-trimethyl-7,8,9,10-tetrahydro-6H-dibenzo[b,d]pyran hydrochloride] | 6.8 mg/kg | 1.1 mg/kg | 55.9 mg/kg | – | 60.6 mg/kg | 7.4 mg/kg | > 150 mg/kg | 0.7 mg/kg | marked activity in abolishing the hind limb tonic extensor component | 37.2 mg/kg | slight tolerance | 7.8 mg/kg | tolerance to anticonvulsant activity ([5]; daily higher doses such as 5.0 and 10.0 mg./kg.): increase in tolerance; ED50 ([1]; daily, general description, read-out: oral ED50 for blocking the tonic extensor component of audiogenic seizures): 1 to 2 mg/kg; 24 hr ED50 (50% of animals protected from hindlimb tonic extension) ([1]; mice, single oral dose, 24 hr post drug administration, hydrochloride, 1440 min): 55.5 mg/kg; anti-convulsant activity ([1]; mouse audiogenic seizure test, hydrochloride): marked activity in antagonizing the hind limb tonic extensor component; also recorded: potent anti-convulsant activity; anti-convulsant activity ([2]; rat supramaximal electroshock test, hydrochloride): potent anti-convulsant activity; also recorded: marked activity in preventing the hind limb tonic extension feature of supramaximal electroshock; antagonism of preconvulsive running [4]: preconvulsive running was not antagonized; tolerance to side effects of sedation and irritability [6]: marked tolerance develops to the side effects of sedation and irritability within a few days of medication; retention of anticonvulsant activity on repeated medication ([3]; audiogenic seizure test in mice): retained without any loss of the potency
